Columns and labels:
[1] = system: wounded animals; assay: Feeding of wounded animals with supplemented feed (general description, daily intake titration); assay type: in vivo
Excerpt: Phytohormones and beta-glucans appeared to work in a wide range of concentrations for improving the speed of wound healing in animals. The optimal concentrations may vary between different species, however, the skilled person will know how to obtain an optimal concentration for a given species, for instance by titration of the desired compound into the animal feed and testing when this would have the optimal effect. The following may serve as guidance in this process.
A skilled person will appreciate that the amount of free IAA in the ready to use feed has to be adjusted in order to supply the animal with an effective amount of free IAA. In order to adjust the free IAA concentration in the feed so that a certain daily intake of free IAA is achieved, an estimate has to be made of the feed intake of an animal or animal group. A skilled person is aware of the feed intake of a (particular kind or group of) animal(s), typically, the feed intake per day is between 0.5 and 10% of the body weight of the animal, with occasional exceptions as high as 20%. Elderly animals tend to eat less and are considered to have a feed intake per day between 0.1 and 5%, typically of 1% of their body mass.

[2] = system: koi fish suffering from wounds as a result of parasites; assay: Wound healing of koi fish in ponds fed fish feed according to the invention; assay type: in vivo; conditions: scale 1 (very slow recovery) to 5 (very fast recovery)
Excerpt: Four ponds of 40 cubic meters each, each containing 50 koi fish with an approximate total body weight of 50 kg were used to establish the effect of the fish feed according to the invention on wound healing. One pond (pond 1) served as a control were the fish were fed with control feed, the fish in the other ponds received a feed according to the invention as prepared in examples 6 to 8 above.
The fish in control pond were fed with 10 gram Cyprico White 3 mm floater feed per day, whereas the fish in the other ponds were fed with 10 gram of the feed as described in Example 2, 3 and 4 (Table 2). About 10% of all fish suffered from wounds as a result of parasites.
The veterinarian filled in a questionnaire on the recovery process of the fish, Table 3. Criterion was the speed of disappearance of the wounds. This criterion was scored on a scale ranging from 1 to 5 wherein 1 was very slow recovery and 5 very fast recovery. This criterion was scored 1, 2, 4, 7 and 21 days of feeding.

[3] = system: humans; conditions: single doses of 0.1 g/kg body weight; cited from earlier work
[4] = system: fibroblasts; conditions: cited from earlier work
[5] = system: surgical wound; conditions: oral supplementation of 50 mg of zinc three times per day, as zinc sulfate; cited from earlier work

1.3 and 1.6 beta glucans
optimal daily intake (optimal results / optimum between cost and benefit) ([1]; in feed): around 5 mg/kglw/day

O=C(O)Cc1c[nH]c2ccccc12 [free IAA, indole-3-acetic acid]
Wound healing score ([2]; 1 day of feeding): 1
Wound healing score ([2]; 2 days of feeding): 1
Wound healing score ([2]; 4 days of feeding): 2
Wound healing score ([2]; 7 days of feeding): 3
Wound healing score ([2]; 21 days of feeding): 4
toxicity of single doses [3]: non-toxic
effect on the migration of fibroblasts in vitro [4]: had an effect
effect on recovery of wounded animals ([1]; feed with 0.4 mg/kglw/day): very effective

C=C1C[C@]23C[C@@]1(O)CC[C@H]2[C@@]12C=C[C@H](O)[C@@](C)(C(=O)O1)[C@H]2[C@@H]3C(=O)O [gibberellin, gibberellic acid]
effect on the migration of fibroblasts in vitro [4]: not

O=S(=O)([O-])[O-].[Zn+2] [zinc, zinc sulfate]
reduction of healing time of a surgical wound [5]: 43%

From patent US20090062370A1, “Method for increasing the speed of recovery and/or the speed of wound healing of injured animals” (priority 2005, published 2009)
